Data reported in ChEMBL document CHEMBL1201862, “PubChem BioAssay data set” (2004).
Activity calls are given as the source filed them. Rule as the data show it: actives have a measured IC50 and inactives only a lower limit.

Target: Envelope glycoprotein gp160 (Human immunodeficiency virus 1, UniProt Q6QLK5)
Assay: cell-free HIV fusion peptide-binding blockers – biochemical, uHTS, fluorescence dequenching, […] (AID 1986)

Envelope glycoprotein gp160, sequence (Q6QLK5 whole entry, the tested form may be a part): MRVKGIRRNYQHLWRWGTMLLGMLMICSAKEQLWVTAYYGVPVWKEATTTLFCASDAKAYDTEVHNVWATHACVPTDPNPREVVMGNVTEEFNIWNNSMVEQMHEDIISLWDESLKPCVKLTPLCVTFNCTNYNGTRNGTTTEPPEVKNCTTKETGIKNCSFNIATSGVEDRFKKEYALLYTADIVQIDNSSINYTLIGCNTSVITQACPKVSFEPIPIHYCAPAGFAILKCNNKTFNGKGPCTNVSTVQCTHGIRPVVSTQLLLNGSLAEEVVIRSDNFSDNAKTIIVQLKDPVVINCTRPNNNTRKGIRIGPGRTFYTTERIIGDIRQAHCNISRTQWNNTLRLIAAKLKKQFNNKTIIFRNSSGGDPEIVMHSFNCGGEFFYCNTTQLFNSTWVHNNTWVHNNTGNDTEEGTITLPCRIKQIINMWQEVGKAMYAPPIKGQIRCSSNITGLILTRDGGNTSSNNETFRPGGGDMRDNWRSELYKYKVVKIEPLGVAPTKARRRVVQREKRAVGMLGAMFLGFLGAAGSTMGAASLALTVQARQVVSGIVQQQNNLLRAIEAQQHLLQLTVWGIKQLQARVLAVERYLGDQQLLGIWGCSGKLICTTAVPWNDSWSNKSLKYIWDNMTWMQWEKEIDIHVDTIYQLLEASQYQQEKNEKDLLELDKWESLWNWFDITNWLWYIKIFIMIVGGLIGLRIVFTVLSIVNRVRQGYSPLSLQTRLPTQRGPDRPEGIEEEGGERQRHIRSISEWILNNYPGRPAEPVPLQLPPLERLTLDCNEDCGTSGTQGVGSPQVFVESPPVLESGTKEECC

**Q.** CCn1nc([N+](=O)[O-])c(C(C#N)c2nc3cc(C(F)(F)F)ccc3s2)c(Cl)c1=O (stereo not drawn) was tested. Which IC50 did it give?
**A.** 14.9 µM (active)

**Q.** For CC(c1ccccc1)N1C(=O)c2ccc(C(=O)Nc3ccccc3C(=O)O)cc2C1=O (stereo not drawn), which IC50 is on record?
**A.** 19.3 µM (active)

**Q.** For Cc1c2c(=O)n(-c3nc4ccccc4s3)nc-2cc(O)n1Cc1ccccc1, which IC50 is on record?
**A.** 13.8 µM (active)
